The values below are quoted from earlier work in patent US20040101555A1, “Method for stable and controlled delivery of (—)-hydroxycitric acid” (priority 2002, published 2004).

For data set [1] the following is noted: single large oral dose or two divided oral doses totaling one fourth of the single dose; high-sugar diet.
The conditions of data set [2]: over a three week period; higher dosage, alone.

A value given as a limit tells only on which side of the number the result lay.

`O=C(O)CC(O)(C(=O)O)C(O)C(=O)O` (single isomer, unassigned; (-)) [HCA, (−)-Hydroxycitric acid]: the “reduction in food consumption” value in data set [1] is given as not below 10%.
Consider `O=C([O-])CC(O)(C(=O)[O-])C(O)C(=O)[O-].[K+].[K+].[K+]` (stereo not drawn) [potassium (−)-hydroxycitirate, potassium (−)-hydroxycitrate], for which the average weight loss in data set [2] is listed as 3 pounds per week.
